Reference: article PMC4390470 (Investigational new drugs, 2015)
Where two headings read alike, the source gives them in different places. Values belong to the compound of their own block, whether it stands above or below them.

How the values were obtained:
[1] = test system: metastatic castration-resistant prostate cancer (mCRPC); settings: cited from earlier work
[2] = human, in vivo, 28 days
[3] = in vivo
[4] = in vivo; remark: listed apart in the source

Compound: CC(=O)O[C@H]1CC[C@@]2(C)C(=CC[C@@H]3[C@@H]2CC[C@]2(C)C(c4cccnc4)=CC[C@@H]32)C1 [Abiraterone acetate]
Median OS ([1]; chemotherapy-naïve mCRPC, versus placebo 27.2, ref [16]): not reached
Median OS ([1]; mCRPC following docetaxel therapy, versus placebo 11.2, ref [15]): 15.8 months

Tmax (human, plasma, other: orteronel oral (PO), docetaxel intravenous infusion): ~1 h
Mean plasma concentration-time profile, alone versus in combination (phase 2, orteronel with/without docetaxel and docetaxel with/without orteronel): similar
AUC0-tau and Cmax, alone versus in combination (phase 2, orteronel with/without docetaxel and vice versa): similar
Compound: CC(=O)O[C@@]12CO[C@@H]1C[C@H](O)[C@@]1(C)C(=O)[C@H](O)C3=C(C)[C@@H](OC(=O)[C@H](O)[C@@H](NC(=O)OC(C)(C)C)c4ccccc4)C[C@@](O)([C@@H](OC(=O)c4ccccc4)[C@H]21)C3(C)C [docetaxel]

Compound: CNC(=O)c1ccc(N2C(=S)N(c3ccc(C#N)c(C(F)(F)F)c3)C(=O)C2(C)C)cc1F [enzalutamide]
Median OS ([1]; chemotherapy-naïve mCRPC, versus placebo 31.0, ref [14]): not reached
Median OS ([1]; mCRPC following docetaxel therapy, versus placebo 13.6, ref [17]): 18.4 months

Recommended phase 2 dose (RP2D) of orteronel in combination with DP [2]: 400 mg BID
AUC0-tau and Cmax, alone versus in combination [4]: similar
Mean plasma concentration-time profile, alone versus in combination [4]: similar
Compound: CNC(=O)c1ccc2cc([C@@]3(O)CCn4cncc43)ccc2c1 [orteronel]
Cardiovascular profile [3]: acceptable cardiovascular profile
